Results from publication PMC2797576 (Biochemistry, 2009).
Marks after values point to notes of the source that are not given here.

Tests used:
[1] = molecular target: E. coli D-3-phosphoglycerate dehydrogenase (PGDH), native enzyme (Escherichia coli, UniProt P0A9T0); assay: Steady-state inhibition of enzymatic activity of native PGDH by L-serine; type: biochemical
W139F-E360W PGDH [2] = molecular target: T1, W139F-E360W PGDH (Escherichia coli, UniProt P0A9T0, E360W/W139F); assay: Steady-state serine binding by tryptophan fluorescence quenching titration; parameters: species or system E. coli; conditions: 2.5 μM enzyme subunits, fit to Hill equation (eq 11)
W139F-E360W PGDH [3] = molecular target: T1, W139F-E360W PGDH; assay: Steady-state inhibition of enzymatic activity of W139F-E360W PGDH by L-serine; type: biochemical, E. coli; conditions: W139F-E360W mutant
W139F-E360W PGDH [4] = molecular target: T1, W139F-E360W PGDH; assay: Stopped-flow transient kinetics of L-serine binding; parameters: species or system E. coli; conditions: for k3: estimated from Figure 9; for k2: forward rate constant of conformational change after binding; for k−3: reverse rate constant of conformational change before binding
[5] = molecular target: E. coli PGDH (native, free of bound NADH) (Escherichia coli, UniProt P0A9T0); assay: Pre-steady-state stopped-flow analysis of NADH binding; conditions: saturating L-serine versus serine absent

Question: What does the source list for `N[C@@H](CO)C(=O)O` [L-serine]?
Answer: Hill coefficient for inhibition of enzymatic activity [1]: 1.9 ± 0.1; K0.5 for fluorescence quenching (W139F-E360W PGDH [2]): 13.6 ± 0.5; Hill coefficient for inhibition of enzymatic activity (W139F-E360W PGDH [3]): 2.2 ± 0.1; k3 (W139F-E360W PGDH [4]; kobs1, printed >0–20): (>0–20 s^−1) ^b; k2 (W139F-E360W PGDH [4]; kobs1): 61 ± 4 s⁻¹; k−3 (W139F-E360W PGDH [4]; kobs1): 88 ± 7 s⁻¹; k3 (W139F-E360W PGDH [4]; kobs2, printed >0–2): (>0–2 s^−1) ^b; k2 (W139F-E360W PGDH [4]; kobs2): 161 ± 18 s⁻¹; k−3 (W139F-E360W PGDH [4]; kobs2): 166 ± 22 s⁻¹; Increase in the Kd for NADH binding caused by serine, first set of sites [5]: 15 fold; Increase in the Kd for NADH binding caused by serine, other set of sites [5]: 5 fold
